Among the data in patent US20050014754A1, “Fused pyrrole compounds” (priority 2003, published 2005) are IC50 values, retold here.

The subject of assay [1] is PDE4. Briefly: In-vitro assay measuring PDE4 inhibition (PDE4 from U937 human monocytic cells, [3H]-cAMP SPA). Type of assay: biochemical. The conditions noted are these: 23 nM [3H]-cAMP, 37° C., 30 min. As for the experimental part: PDE4 was prepared from U937 human monocytic cells according to the method of Tenor et al. (Clin Exp Allegy (1995) 25:625-633). Briefly, U937 cells were homogenized in a mixture of pH 7.4 containing 10 mM Hepes, 1 mM b-mercaptoethanol, 1 mM MgCl2, 1 mM EGTA, 137 mM NaCl, 2.7 mM KCl, 1.5 mM KH2PO4, 8.1 mM Na2HPO4, 5 μM pepstain A, 10 μM leupeptin, 50 μM PMSF, 10 μM soybean trypsin inhibitor, and 2 mM benzamindine. The homogenate was centrifuged at 200,000×g for 30 min. PDE4 activity in the supernatant was assayed in a 200 μl reaction containing 40 mM Tris-HCl, pH 7.5, 23 nM [^3H]-adenosine 3′,5′ cyclic monophosphate (cAMP), 8.3 mM MgCl2, 1.7 mM EGTA, 0.25% DMSO, and a testing compound. The assay mixture was incubated at 37° C. for 30 min and the reaction was terminated by the addition of 100 μl of yttrium silicate SPA beads (Amersham Pharmacia Biotech, Piscataway, N.J.) suspended in 18 mM ZnSO4. The assay mixture was rotated for 3 min to ensure the binding of [^3H]-5′adenosine monophosphate to the beads. Finally, the beads was spun down, washed twice with 6 mM ZnSO4, resuspended in 100 μl of 0.1 N NaOH, and then counted for radioactivity in a liquid scintillation counter.

Assay [2] relates to MDA435 (human breast cancer). Briefly: In-vitro assay measuring anti-cancer activity (MTS assay). Type of assay: cell-based. Conditions: MDA435 cells, 72 hours incubation, read-out: IC50, concentration required to inhibit 50% tumor cell growth. As for the experimental part:
In vitro anti-cancer activity was determined in human cancer cell line MDA435 (human breast cancer), obtained from ATCC (American Type of Culture Collection).
The cell line was maintained in RPMI1640(GIBCO) supplemented with 10% FCS, 100 units/ml penicillin, 100 ug/ml streptomycin, and 2 mM L-glutamine. The cells were split every third day and diluted to a concentration of 2×10^5 cells/ml one day before experiment. The experiment was performed on exponentially growing cell culture. Cell densities were 2.5×10^4 cells/ml in this experiment.
A stock solution of Compound (I-4) was prepared by dissolving the compound at a concentration of 1 mM in 100% DMSO. Final concentrations were obtained by diluting the stock solution directly into the tissue culture medium. Cells were incubated with varying concentrations of the compound for 72 hours and the IC50 was determined by MTS (i.e. 3-(4.5.-dimethylthiazol-2-yl)-2.5-diphenyl tetrazolium bromide) assay. In this experiment, IC50 stands for the concentration of compound required to inhibit 50% tumor cell growth. Compound (I-4) provided an IC50 value of about 1 μM.

The subject of assay [3] is TNFα. Briefly: In-vitro assay measuring TNFα inhibition (LPS-stimulated human PBMC, ELISA). Format: cell-based. The conditions noted are these: human PBMC stimulated with LPS 1 μg/mL, supernatant after 18 h, read-out: IC50, inhibition of TNFα production. The procedure: Reagents. Lipopolysaccharide (LPS, Serratia marscencens) was obtained from Sigma (St. Louis, Mo.). RPMI-1640 medium and fetal calf serum (FCS) were purchased from the ATCC (Manassas, Va.).
Assay. Human peripheral blood cells (PBMC) were isolated by centrifugation using Ficoll-Paque (Pharmacia Biotech, Uppsala, Sweden) and suspended in RPMI-1640 medium supplemented with 10% FCS, 100 U/mL penicillin, and 100 μg/mL streptomycin. The cells were then plated in the wells of a 96-well plate at a concentration of 5×10^5 cells/well, and stimulated by adding LPS (1 μg/mL). Each test compound was dissolved in DMSO and added to the wells. The final DMSO concentration was adjusted to 0.25% in all cultures, including the compound-free control, and the concentrations of each test compound ranged from 0 to 10 μM. Cell-free supernatants were taken 18 h later for measurement of cytokines. Cell viability was assessed using the bioreduction of MTS [3-(4,5-dimethylthiazol-2-yl)-5-(3-carboxymethoxyphenyl)-2-(4-sulophenyl)-2H-tetrazolium] after 18 h and 48 h. Cell survival was estimated by determining the ratio of the absorbance in each of the compound-treated cultures to that in the compound-free control.
The supernatant was assayed for the amount of TNFα by using an ELISA assay with anti-human TNFa antibodies (Cell Sciences, Norwood, Mass.). The assay was carried out following the manufacturer's instructions.

Regarding `O=C(Nc1c(Cl)c[n+]([O-])cc1Cl)C(=O)c1cc(Cc2ccc(F)cc2)n2ncccc12` [Compound I-4, N-(3,5-Dichloro-1-oxy-pyridin-4-yl)-2-[7-(4-fluoro-benzyl)-pyrrolo[1,2-b]pyridazin-5-yl]-2-oxo-acetamide], the IC50 in assay [1] was about 5 nM; in assay [2] it was about 1000 nM; in assay [3], about 50 nM.

Consider `Cc1cc(NC(=O)C(=O)c2cc(Cc3ccc(C#N)cc3)n3ccsc23)sn1` [Compound I-10, 2-[5-(4-Cyano-benzyl)-pyrrolo[2,1-b]thiazol-7-yl]-N-(3-methyl-isothiazol-5-yl)-2-oxo-acetamide], for which the IC50 in assay [3] is about 1000 nM.
